Each structure is given as a SMILES string.

The target in the assay is T1, hMAGL (Homo sapiens, UniProt Q99685).
T1 sequence (Q99685 1-303): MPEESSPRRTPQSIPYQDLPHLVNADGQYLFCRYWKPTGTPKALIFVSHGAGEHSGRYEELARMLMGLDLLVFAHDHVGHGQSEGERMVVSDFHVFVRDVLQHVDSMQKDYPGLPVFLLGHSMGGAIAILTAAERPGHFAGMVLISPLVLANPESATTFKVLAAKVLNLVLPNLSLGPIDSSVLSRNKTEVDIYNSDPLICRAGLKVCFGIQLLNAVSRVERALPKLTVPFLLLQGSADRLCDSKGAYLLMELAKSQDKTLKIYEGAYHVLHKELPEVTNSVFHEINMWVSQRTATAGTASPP
The experiment in a line: 2-AG assay: MAGL inhibition, hydrolysis of 2-arachidonoylglycerol to arachidonic acid followed by mass spectrometry. Format: biochemical. As to the method:
Compounds of formula (I) were profiled for MAGL inhibitory activity by determining the enzymatic activity by following the hydrolysis of the natural substrate 2-arachidonoylglycerol (2-AG) resulting in arachidonic acid, which can be followed by mass spectrometry. This assay is hereinafter abbreviated “2-AG assay”. The 2-AG assay was carried out in 384 well polypropylene assay plates. […] Compound dilutions were added to MAGL protein in assay buffer (50 mM TRIS, 1 mM EDTA, 0.01% (v/v) Tween-20, 2.5% (v/v) DMSO). After shaking, the plate was incubated for 15 min at RT. To start the reaction, 2-arachidonoylglycerol in assay buffer was added. The final concentrations in the assay was […] for MAGL protein and 8 μM 2-arachidonoylglyerol. After shaking and 30 min incubation at RT, the reaction was quenched by the addition of two assay volumes of acetonitrile containing 4 μM of d8-arachidonic acid. The amount of arachidonic acid formed was traced by an online SPE system (Agilent Rapidfire) coupled to a triple quadrupole mass spectrometer. A C18 SPE cartridge (Agilent G9205A) was used in an acetonitrile/water liquid setup. […] The activity of the compounds was calculated based on the ratio of intensities [arachidonic acid/d8-arachidonic acid].
Take `Cn1ncc(CC2CC3(C2)CN(C(=O)N2CC4(CC(n5cnc(C6(O)CC6)n5)C4)C2)C3)c1C(F)(F)F` [Example 1, [6-[3-(1-hydroxycyclopropyl)-1,2,4-triazol-1-yl]-2-azaspiro[3.3]heptan-2-yl]-[6-[[1-methyl-5-(trifluoromethyl)pyrazol-4-yl]methyl]-2-azaspiro[3.3]heptan-2-yl]methanone]: the IC50 was found to be 0.47 nM.
For `Cn1nc(CC2CC3(C2)CN(C(=O)N2CC4(CC(n5cnc(C6(O)CC6)n5)C4)C2)C3)cc1C(F)(F)F` [Example 2, [6-[3-(1-hydroxycyclopropyl)-1,2,4-triazol-1-yl]-2-azaspiro[3.3]heptan-2-yl]-[6-[[1-methyl-5-(trifluoromethyl)pyrazol-3-yl]methyl]-2-azaspiro[3.3]heptan-2-yl]methanone], the IC50 amounted to 0.61 nM.
As for `Cn1ncc(C(F)(F)F)c1CC1CC2(C1)CN(C(=O)N1CC3(CC(n4cnc(C5(O)CC5)n4)C3)C1)C2` [Example 3], the figure is 2.21 nM; as for `O=C(N1CC2(CC(Cn3nccc3C(F)(F)F)C2)C1)N1CC2(CC(n3cnc(C4(O)CC4)n3)C2)C1` [Example 4], 1.74 nM.
The figure for `O=C(N1CC2(CC(Cn3nccc3C(F)(F)F)C2)C1)N1CC2(CC(c3cc(C4(O)CC4)n[nH]3)C2)C1` [Example 5] is 1.7 nM; for `Cn1cc(CC2CC3(C2)CN(C(=O)N2CC4(CC(n5cnc(C6(O)CC6)n5)C4)C2)C3)c(C(F)(F)F)n1` [Example 6, [6-[3-(1-hydroxycyclopropyl)-1,2,4-triazol-1-yl]-2-azaspiro[3.3]heptan-2-yl]-[6-[[1-methyl-3-(trifluoromethyl)pyrazol-4-yl]methyl]-2-azaspiro[3.3]heptan-2-yl]methanone] it is 4.93 nM.
Turning to `O=C(N1CC2(CC(Cc3nnc(C4(C(F)(F)F)CC4)o3)C2)C1)N1CC2(CC(n3cnc(C(F)(F)F)n3)C2)C1` [Example 7], the IC50 is 2.51 nM.
Turning to `O=C(N1CC2(CC(Cc3nnc(C4(C(F)(F)F)CC4)o3)C2)C1)N1CC2(CC(n3cnc(C4CC4)n3)C2)C1` [Example 8], half-maximal inhibition (IC50) required 0.7 nM.
Consider `O=C(N1CC2(CC(Cc3n[nH]c(C(F)(F)F)n3)C2)C1)N1CC2(CC(n3cnc(C(F)(F)F)n3)C2)C1` [Example 9, [6-[3-(trifluoromethyl)-1,2,4-triazol-1-yl]-2-azaspiro[3.3]heptan-2-yl]-[6-[[5-(trifluoromethyl)-1H-1,2,4-triazol-3-yl]methyl]-2-azaspiro[3.3]heptan-2-yl]methanone], for which the IC50 was found to be 7.07 nM.
As for `O=C(N1CC2(CC(Cc3n[nH]c(C(F)(F)F)n3)C2)C1)N1CC2(CC(n3cnc(C4CC4)n3)C2)C1` [Example 10], the figure is 1.96 nM; as for `O=C(N1CC2(CC(Cc3n[nH]c(C(F)(F)F)n3)C2)C1)N1CC2(CC(n3cnc(C4(O)CC4)n3)C2)C1` [Example 11, [6-[3-(1-hydroxycyclopropyl)-1,2,4-triazol-1-yl]-2-azaspiro[3.3]heptan-2-yl]-[6-[[5-(trifluoromethyl)-1H-1,2,4-triazol-3-yl]methyl]-2-azaspiro[3.3]heptan-2-yl]methanone], 20.4 nM.
The figure for `O=C(N1CC2(CC(Cn3cc(C(F)(F)F)cn3)C2)C1)N1CC2(CC(n3cnc(C4(O)CC4)n3)C2)C1` [Example 12] is 8.67 nM.
Take `O=C(N1CC2(CC(Oc3nc(C(F)(F)F)cs3)C2)C1)N1CC2(CC(n3cnc(C4(O)CC4)n3)C2)C1` [Example 13, [6-[3-(1-hydroxycyclopropyl)-1,2,4-triazol-1-yl]-2-azaspiro[3.3]heptan-2-yl]-[6-[4-(trifluoromethyl)thiazol-2-yl]oxy-2-azaspiro[3.3]heptan-2-yl]methanone]: half-maximal inhibition (IC50) required 14.9 nM.
`O=C(N1CC2(CC(Cc3cnn(C(F)(F)F)c3)C2)C1)N1CC2(CC(n3cnc(C4(O)CC4)n3)C2)C1` [Example 14]: half-maximal inhibition (IC50) was put at 6.35 nM.
The figure for `O=C(N1CC2(CC(Cc3nc(C(F)(F)F)ns3)C2)C1)N1CC2(CC(n3cnc(C(F)(F)F)n3)C2)C1` [Example 15, [6-[[3-(trifluoromethyl)-1,2,4-thiadiazol-5-yl]methyl]-2-azaspiro[3.3]heptan-2-yl]-[6-[3-(trifluoromethyl)-1,2,4-triazol-1-yl]-2-azaspiro[3.3]heptan-2-yl]methanone] is 2.25 nM; for `O=C(N1CC2(CC(Cc3nc(C(F)(F)F)ns3)C2)C1)N1CC2(CC(n3cnc(C4CC4)n3)C2)C1` [Example 16] it is 0.18 nM; for `O=C(N1CC2(CC(Cc3nc(C(F)(F)F)ns3)C2)C1)N1CC2(CC(n3cnc(C4(O)CC4)n3)C2)C1` [Example 17, [6-[3-(1-hydroxycyclopropyl)-1,2,4-triazol-1-yl]-2-azaspiro[3.3]heptan-2-yl]-[6-[[3-(trifluoromethyl)-1,2,4-thiadiazol-5-yl]methyl]-2-azaspiro[3.3]heptan-2-yl]methanone] it is 17.5 nM.
`O=C(N1CC2(CCN(Cc3cc(C(F)(F)F)no3)CC2)C1)N1CC2(CC(n3cnc(C4(O)CC4)n3)C2)C1` [Example 18, [6-[3-(1-hydroxycyclopropyl)-1,2,4-triazol-1-yl]-2-azaspiro[3.3]heptan-2-yl]-[7-[[3-(trifluoromethyl)isoxazol-5-yl]methyl]-2,7-diazaspiro[3.5]nonan-2-yl]methanone] displayed an IC50 of 334 nM.
Compound `O=C(N1CC2(CC(n3cnc(C4(O)CC4)n3)C2)C1)N1CC2(CN(Cc3cnc(C(F)(F)F)s3)C2)C1` [Example 19] came in with an IC50 of 34.5 nM.
`O=C(N1CC2(CC(Cc3nsc(C(F)(F)F)n3)C2)C1)N1CC2(CC(n3cnc(C(F)(F)F)n3)C2)C1` [Example 20, [6-[[5-(trifluoromethyl)-1,2,4-thiadiazol-3-yl]methyl]-2-azaspiro[3.3]heptan-2-yl]-[6-[3-(trifluoromethyl)-1,2,4-triazol-1-yl]-2-azaspiro[3.3]heptan-2-yl]methanone] returned an IC50 of 0.85 nM.
In turn, `O=C(N1CC2(CC(Cc3nsc(C(F)(F)F)n3)C2)C1)N1CC2(CC(n3cnc(C4CC4)n3)C2)C1` [Example 21, [6-(3-cyclopropyl-1,2,4-triazol-1-yl)-2-azaspiro[3.3]heptan-2-yl]-[6-[[5-(trifluoromethyl)-1,2,4-thiadiazol-3-yl]methyl]-2-azaspiro[3.3]heptan-2-yl]methanone] displayed an IC50 of 0.1 nM.
`O=C(N1CC2(CC(Cc3nsc(C(F)(F)F)n3)C2)C1)N1CC2(CC(n3cnc(C4(O)CC4)n3)C2)C1` [Example 22, [6-[3-(1-hydroxycyclopropyl)-1,2,4-triazol-1-yl]-2-azaspiro[3.3]heptan-2-yl]-[6-[[5-(trifluoromethyl)-1,2,4-thiadiazol-3-yl]methyl]-2-azaspiro[3.3]heptan-2-yl]methanone] gave a 50% inhibitory concentration (IC50) of 2.57 nM.
Compound `O=C(N1CC2(CC(Cc3nc(C(F)(F)F)co3)C2)C1)N1CC2(CC(n3cnc(C4(O)CC4)n3)C2)C1` [Example 23, [6-[3-(1-hydroxycyclopropyl)-1,2,4-triazol-1-yl]-2-azaspiro[3.3]heptan-2-yl]-[6-[[4-(trifluoromethyl)oxazol-2-yl]methyl]-2-azaspiro[3.3]heptan-2-yl]methanone] yielded an IC50 of 24.5 nM.
`Cn1nc(C(F)(F)F)cc1CN1CCC2(CC1)CN(C(=O)N1CC3(CC(c4cc(C5CC5)n[nH]4)C3)C1)C2` [Example 24]: the IC50 is 6.51 nM.
With `Cn1nc(C(F)(F)F)cc1CN1CCC2(CC1)CN(C(=O)N1CC3(CC(n4cnc(C(F)(F)F)n4)C3)C1)C2` [Example 25], the half-maximal inhibitory concentration (IC50) came to 25.2 nM.
Take `Cn1nc(C(F)(F)F)cc1CN1CCC2(CC1)CN(C(=O)N1CC3(CC(n4cnc(C5CC5)n4)C3)C1)C2` [Example 26, [6-(3-cyclopropyl-1,2,4-triazol-1-yl)-2-azaspiro[3.3]heptan-2-yl]-[7-[[2-methyl-5-(trifluoromethyl)pyrazol-3-yl]methyl]-2,7-diazaspiro[3.5]nonan-2-yl]methanone]: the IC50 came to 3.42 nM.
Turning to `Cn1nc(C(F)(F)F)cc1CN1CCC2(CC1)CN(C(=O)N1CC3(CC(n4cnc(C5(O)CC5)n4)C3)C1)C2` [Example 27, [6-[3-(1-hydroxycyclopropyl)-1,2,4-triazol-1-yl]-2-azaspiro[3.3]heptan-2-yl]-[7-[[2-methyl-5-(trifluoromethyl)pyrazol-3-yl]methyl]-2,7-diazaspiro[3.5]nonan-2-yl]methanone], the IC50 stood at 122 nM.
Take `O=C(N1CC2(CCN(Cc3cc(C(F)(F)F)[nH]n3)CC2)C1)N1CC2(CC(n3cnc(C(F)(F)F)n3)C2)C1` [Example 28]: inhibition was half-maximal at 20.5 nM (IC50).
`O=C(N1CC2(CCN(Cc3cc(C(F)(F)F)[nH]n3)CC2)C1)N1CC2(CC(n3cnc(C4CC4)n3)C2)C1` [Example 29, [6-(3-cyclopropyl-1,2,4-triazol-1-yl)-2-azaspiro[3.3]heptan-2-yl]-[7-[[5-(trifluoromethyl)-1H-pyrazol-3-yl]methyl]-2,7-diazaspiro[3.5]nonan-2-yl]methanone] gave an IC50 of 4.2 nM.

These data come from patent publication US20260374756A1, “HETEROCYCLIC COMPOUNDS AS INHIBITORS OF MONOACYLGLYCEROL LIPASE (MAGL)” (Hoffmann-La Roche Inc., priority 2022, published 2026).
